From patent US10561658B2, “Thieno- and pyrrolopyrimidine analogues as anticancer agents and methods of use thereof” (UNIVERSITY OF MARYLAND, BALTIMORE COUNTY, priority 2015, dated 2020) come the findings set out here.

In brackets after ≈: the same amount, converted by molar mass. Like-named read-outs stand apart in the source and are kept apart here.

For assay [1], the system named is murine leukemia L1210 cells. The assay can be described thus: Cell proliferation assay, L1210. The format is cell-based. As to conditions: Mus musculus. The protocol:
Cell proliferation assays for several of the compounds were performed on L1210, a mouse lymphocytic leukemia cell line; CCRF-CEM [39] an acute lymphoblastic leukemia cell line; and HeLa, a human cancer cell line derived from a human cervical adenocarcinoma. Murine Leukemia L1210, human lymphocytic CEM and human cervix carcinoma HeLa cells were obtained from the American Type Culture Collection (ATCC) (Rockville, Md.). All assays were performed in 96-well microtiter plates. To each well were added (5-7.5)×10^4 tumor cells and a given amount of the test compound. The cells were allowed to proliferate for 48 h (murine leukemia L1210 cells) or 72 h (human lymphocytic CEM and human cervix carcinoma HeLa cells) at 37° C. in a humidified CO2-controlled atmosphere. At the end of the incubation period, the cells were counted in a Coulter counter. The IC50 (50% inhibitory concentration) was defined as the concentration of the compound that inhibited cell proliferation by 50%. […] Presence of C7 iodine on the 2,4-dichloro pyrrolo[3,2-d] (compound 20) increases the anticancer activity by a factor of 5 when compared to compound 19. […] This alludes to a) importance of C7-I towards activity against cancer cell lines for the 2,4-O-benzylated analogues (15 and 16).

Assay [2] deals with Pseudomonas aeruginosa ATCC 27853. Put plainly: Antimicrobial growth inhibition, P. aeruginosa. The format is cell-based. The following applies: ATCC27853; Pseudomonas aeruginosa ATCC 27853, 100 μM. How it is done:
Evaluation of antimicrobial activity in vitro. Compounds were tested against the following panel of bacteria and fungi purchased from the American Type Culture Collection (ATCC). Briefly, bacteria were grown to mid-log phase, diluted with fresh medium to an optical density at 600 nm (OD600) of 0.030-0.060 and then diluted again 1:10. This suspension (195 μL) was added to wells in a 96 well microtiter plate (Sarstedt) and 5 μL of compound dissolved in DMSO was added to give a final concentration of 100-0.1 μM at 2.5% DMSO by volume. A DMSO negative control and standard antibiotic positive controls were included in each plate. All compounds were tested in triplicate for each concentration. Plates were sealed with parafilm, placed in a Ziploc bag to prevent evaporation, and incubated at 30° C. (fungi) or 37° C. (bacteria) for 16-20 hours (48 hours for C. neoformans). The OD600 values for each well were determined with a plate reader (Biotek, EL800) and the data were standardized to the DMSO control wells after subtracting the background from blank medium. Initial single concentrations were tested at 100 μM and active compounds were further tested with at least nine concentrations for a full dose response. Dose response curves were generated using GraphPad Prism 5 software and used to determine the MIC95 concentrations (minimal concentration that inhibits 95% of growth). […]

Assay [3] deals with Candida albicans ATCC 10231. The assay can be described thus: Antifungal growth inhibition and MIC95, C. albicans. The assay is classed as cell-based. The following applies: ATCC10231; for inhibition at 100 µM: Candida albicans ATCC 10231, 100 μM; for MIC: Candida albicans, C. albicans ATCC 10231, minimum concentration for inhibition by 95%. How it is done: (§1) Evaluation of antimicrobial activity in vitro. Compounds were tested against the following panel of bacteria and fungi purchased from the American Type Culture Collection (ATCC). Briefly, bacteria were grown to mid-log phase, diluted with fresh medium to an optical density at 600 nm (OD600) of 0.030-0.060 and then diluted again 1:10. This suspension (195 μL) was added to wells in a 96 well microtiter plate (Sarstedt) and 5 μL of compound dissolved in DMSO was added to give a final concentration of 100-0.1 μM at 2.5% DMSO by volume. A DMSO negative control and standard antibiotic positive controls were included in each plate. All compounds were tested in triplicate for each concentration. Plates were sealed with parafilm, placed in a Ziploc bag to prevent evaporation, and incubated at 30° C. (fungi) or 37° C. (bacteria) for 16-20 hours (48 hours for C. neoformans). The OD600 values for each well were determined with a plate reader (Biotek, EL800) and the data were standardized to the DMSO control wells after subtracting the background from blank medium. Initial single concentrations were tested at 100 μM and active compounds were further tested with at least nine concentrations for a full dose response. Dose response curves were generated using GraphPad Prism 5 software and used to determine the MIC95 concentrations (minimal concentration that inhibits 95% of growth). Compounds 1, 2, 5 and 19 were screened for growth inhibition activity against a panel of bacteria and fungi at a concentration of 100 as shown in Table 2. Compound 5 was included to test the importance of the C4-Cl substituent for activity across a broader range of biological systems.
(§2) Compounds 1 and 2 were further tested against the susceptible fungal strains to determine the MIC95 values.

Assay [4] relates to Cryptococcus neoformans. Put plainly: Antifungal growth inhibition and MIC95, C. neoformans strains. The format is cell-based. The protocol:
as §1, §2

For assay [5], the system named is L1210 cells. Put plainly: Cell cycle distribution (propidium iodide, flow cytometry), L1210. The format is cell-based, mouse. The following applies: IC50 concentrations, 24 h or 48 h. The protocol: 0.32 μM compound 1, b. 5.4 μM compound 2, and analyzed by flow cytometry of fixed, propidium iodide-stained cells. A minimum of 3000 cells were analyzed per cell population. Each bar represents the mean±SD across 4 independent cell samples.
Many antineoplastic compounds arrest cell proliferation by activating specific checkpoints that block progression through the cell cycle. To test whether compounds 1 or 2 inhibited cell proliferation by this mechanism, their effects on L1210 cell cycle distributions were monitored using propidium iodide staining and flow cytometry (FIG. 7). Cell cycle and apoptosis studies were conducted on L1210, a mouse lymphocytic leukemia cell line obtained from the American Type Culture Collection and grown in Dulbecco's Modified Eagle's Medium (DMEM) plus 10% fetal bovine serum (FBS). 2×10^6 cells were seeded in 100 mm dishes and treated with vehicle alone or compounds 1 or 2 at the IC50 values determined by cell viability assays or an equivalent volume of DMSO. At 24 and 48 h following treatment the cells were collected, fixed, and stained with propidium iodide (Sigma Aldrich) immediately before analysis by flow cytometry. Vehicle-treated cells were largely confined to G1 and S phases, with very small (<5%) subpopulations in the G2/M phase or showing sub-(<G1) or super-genomic (>G2) DNA content.
A general note: In flow cytometry, cells or beads pass a laser one at a time.

Assay [6] concerns NCI-60 human tumor cell lines. The assay can be described thus: NCI60 human tumor cell line screen. The format is cell-based. The following applies: NCI60, FIG. 4. How it is done: Lead compounds 1, 2 and 19 were evaluated for anti-cancer activity at nM to uM concentrations in cellular screens.
The lead halogenated pyrrolopyrimidines and thienopyrimidines of the present invention were tested in the human cell line screen which is composed of 60 different human tumor cell lines (NCI-60) representing leukemia, melanoma, lung cancer, colon cancer, brain cancer, ovary cancer, breast cancer, prostate cancer and kidney cancer. Testing specifics can be found at the National Cancer Institute at http://dtp.nci.nih.gov/branches/btb/ivelsp.html. Compounds 1, 2 and 19 were testing initially at a single dose (10^−5M) in the full cell panel. The results of the one-dose are reported as a mean graph of the percent of the growth of the treated cells. Both growth inhibition (values between 0 and 100) and lethality (values less than 0) are detectable. To evaluate the test results, a value of 100 means no growth inhibition. A value of 40 would mean 60% growth inhibition. A value of zero means no net growth over the course of the experiment. A value of −40 means 40% lethality and a value of −100 means all the cells are dead.

Assay [7] has as its system twenty kinases. Put plainly: Select Screen kinase profiling, twenty kinases. The format is biochemical. The following applies: 5 μM. From the text: The thieno[3,2-d]pyrimidine scaffold has been used extensively in the design of kinase inhibitors.
Where [8] appears, read: FIG. 7 concentration, said in b126 to be the IC50 from cell viability assays, read-out: IC50 concentration used for L1210 cell cycle analysis.
[9] abbreviates: ATCC66031, Cryptococcus neoformans ATCC 66031, 100 μM.
Setting [10] is: C. neoformans B4546, minimum concentration for inhibition by 95%.
The mark [11] stands for this setting: C. neoformans JEC20, minimum concentration for inhibition by 95%.
Where [12] appears, read: C. neoformans VANC-R265, 100 μM.

Turning to `Clc1nc(Cl)c2scc(Br)c2n1` [Compound 2, 7-Bromo-2,4-dichlorothieno[3,2-d]pyrimidine], in assay [1] (setting [8]), the IC50 was determined as 5.4 µM. The inhibition (in general, the drop in the measured response relative to a control, in per cent) at 100 µM was under 43% in assay [2]; 99% in assay [3]; 55% in assay [4] (setting [9]); 82% in assay [4] (C. neoformans B4546, 100 μM); 91% in assay [4] (C. neoformans JEC20, 100 μM); 67% in assay [4] (setting [12]). Also, the figures for the MIC in assay [3], in assay [4] (setting [10]) and in assay [4] (setting [11]) were 10.7 µM (≈ 3.04 µg/mL), 7 µM (≈ 1.99 µg/mL) and 5.8 µM (≈ 1.65 µg/mL), respectively. Further, the “changes in L1210 cell cycle distribution” value in assay [5] is “no substantial changes”. Besides, in assay [6], the “activity against non-small cell lung and CNS cancers” value is on record as “little or no activity”. In assay [6], the “anti-cancer activity against melanoma, breast, colon and renal cancers” value (“anti-cancer activity against melanoma” below) is “selective activity”. In addition, the “inhibitory activity against twenty kinases” value in assay [7] was “did not exhibit any substantial inhibitory activity”.
`Clc1nc(Cl)c2[nH]ccc2n1` [Compound 19, 2,4-Dichloropyrrolo[3,2-d]pyrimidine]: the IC50 in assay [1] (48 h proliferation, Coulter counter, read-out: IC50 L1210) was determined as 6.8 ± 2.8 µM. The inhibition at 100 µM was under 43% in assay [3]; under 43% in assay [4] (setting [9]); under 43% in assay [4] (C. neoformans B4546, 100 μM); under 43% in assay [4] (C. neoformans JEC20, 100 μM); under 43% in assay [4] (setting [12]). For the same molecule, in assay [6], the “activity against non-small cell lung and CNS cancers” value was “little or no activity”. The “anti-cancer activity against melanoma” value in assay [6] was “selective activity”.
Turning to `Clc1nc(Cl)c2sccc2n1` [Compound 1, 2,4-Dichlorothieno[3,2-d]pyrimidine], the IC50 in assay [1] (setting [8]) was found to be 0.32 µM. Also, the inhibition at 100 µM is under 43% in assay [2]; 99% in assay [3]; 101% in assay [4] (setting [9]); 96% in assay [4] (C. neoformans B4546, 100 μM); 100% in assay [4] (C. neoformans JEC20, 100 μM); 93% in assay [4] (setting [12]). For the same molecule, the MIC (in general, the smallest concentration in the dilution series that meets the test's criterion for growth inhibition) in assay [3] is 23.4 µM (≈ 4.8 µg/mL); in assay [4] (setting [10]), 34.6 µM (≈ 7.1 µg/mL); in assay [4] (setting [11]), 16.6 µM (≈ 3.4 µg/mL). Further, in assay [5], the “changes in L1210 cell cycle distribution” value is given as “no substantial changes”. In addition, the “activity against non-small cell lung and CNS cancers” value in assay [6] is “little or no activity”. For the same molecule, the “anti-cancer activity against melanoma” value in assay [6] is on record as “selective activity”. The “inhibitory activity against twenty kinases” value in assay [7] was “did not exhibit any substantial inhibitory activity”.
